target: PI 4-kinase beta (Homo sapiens (Human), UniProt Q9UBF8); assay: Kinase Glo Luminescent Kinase Assay (Assay D); assay type: biochemical; conditions: 1 μM ATP, read-out: Assay D PI4Kβ IC50
Excerpt: Kinase Glo Luminescent Kinase Assay (Kglo) for PI 3-Kinase Alpha (A), Pb 3-Kinase Beta (B), Vps34 (C), PI 4-Kinase Beta (D)
The luminescence-based ATP detection reagent KinaseGlo was obtained from Promega, (Cat. No. V6714, Lot No. 236161) through Catalys, Wallisellen, Switzerland. L-alpha-phosphatidylinositol (PI, liver, bovine) was obtained from Avanti Polar Lipid (Cat. No. 840042C, Lot#LPI-274), Phosphatidylinositol-4,5-bisphosphate (PIP(4,5)2) was also obtained from Avanti Polar Lipid (Cat. No. 840046X). L-α-Phosphatidylserine (PS) was obtained from Avanti Polar Lipid (Cat. No. 840032C), n-Octylglucoside from Avanti Polar Lipid (Cat. No. 10634425001). Luminescence is a well established readout to determine ATP concentrations and can thus be used to follow the activity of many kinases regardless of their substrate. The Kinase Glo Luminescent Kinase Assay (Promega, Madison/WI, USA) is a homogeneous HTS method of measuring kinase activity by quantifying the amount of ATP remaining in solution following a kinase reaction.
50 nL of compound dilutions were dispensed onto black 384-well low volume Non Binding Styrene (NBS) plates (Costar Cat. No. NBS#3676). L-α-phosphatidylinositol (PI), provided as 10 mg/ml solution in methanol, was transferred into a glass tube and dried under a nitrogen beam. It was then resuspended in 3% OctylGlucoside (1-O-n-octyl-beta-D-glucopyranoside) by vortexing and stored at 4° C. 5 μL of a mix of PI/OctylGlucoside with the PI 3-kinase alpha and PI 3-kinase beta subtypes, or Vps34 or PI 4-kinase beta were added. Kinase reactions were started by the addition of 5 μl of an ATP-mix containing in a final volume 10 μL 10 mM TRIS-HCl pH 7.5, 3 mM MgCl2, 50 mM NaCl, 0.05% CHAPS, 1 mM DTT and 1 μM ATP at room temperature. Reactions were stopped with 10 μl of KinaseGlo and plates were read 10 mins later in a Synergy2 reader using an integration time of 0.1 seconds per well. 2.5 μM of NVP-BGT226 (1-(3-(trifluoromethyl)-4-(piperazin-1-yl)phenyl)-8-(6-methoxypyridin-3-yl)-3-methyl-1H-imidazo[4,5-c]quinolin-2(3H)-one) was added to the assay plates to generate the 100% inhibition of the kinase reaction, and the 0% inhibition was given by the solvent vehicle (90% DMSO in water). (1-(3-(trifluoromethyl)-4-(piperazin-1-yl)phenyl)-8-(6-methoxypyridin-3-yl)-3-methyl-1H-imidazo[4,5-c]quinolin-2(3H)-one) was used as a reference compound and included in all assay plates in the form of 16 dilution points in duplicate.
IC50 values of the percentage inhibition of each compound at 8 concentrations (10, 3.0, 1.0, 0.3, 0.1, 0.030, 0.010 and 0.003 μM) n=2 were derived by fitting a sigmoidal dose-response curve to a plot of assay readout over inhibitor concentration as described. All fits were performed with the program XLfit4 (ID Business Solutions, Guildford, UK).

Sequence of PI 4-kinase beta (Q9UBF8 whole entry): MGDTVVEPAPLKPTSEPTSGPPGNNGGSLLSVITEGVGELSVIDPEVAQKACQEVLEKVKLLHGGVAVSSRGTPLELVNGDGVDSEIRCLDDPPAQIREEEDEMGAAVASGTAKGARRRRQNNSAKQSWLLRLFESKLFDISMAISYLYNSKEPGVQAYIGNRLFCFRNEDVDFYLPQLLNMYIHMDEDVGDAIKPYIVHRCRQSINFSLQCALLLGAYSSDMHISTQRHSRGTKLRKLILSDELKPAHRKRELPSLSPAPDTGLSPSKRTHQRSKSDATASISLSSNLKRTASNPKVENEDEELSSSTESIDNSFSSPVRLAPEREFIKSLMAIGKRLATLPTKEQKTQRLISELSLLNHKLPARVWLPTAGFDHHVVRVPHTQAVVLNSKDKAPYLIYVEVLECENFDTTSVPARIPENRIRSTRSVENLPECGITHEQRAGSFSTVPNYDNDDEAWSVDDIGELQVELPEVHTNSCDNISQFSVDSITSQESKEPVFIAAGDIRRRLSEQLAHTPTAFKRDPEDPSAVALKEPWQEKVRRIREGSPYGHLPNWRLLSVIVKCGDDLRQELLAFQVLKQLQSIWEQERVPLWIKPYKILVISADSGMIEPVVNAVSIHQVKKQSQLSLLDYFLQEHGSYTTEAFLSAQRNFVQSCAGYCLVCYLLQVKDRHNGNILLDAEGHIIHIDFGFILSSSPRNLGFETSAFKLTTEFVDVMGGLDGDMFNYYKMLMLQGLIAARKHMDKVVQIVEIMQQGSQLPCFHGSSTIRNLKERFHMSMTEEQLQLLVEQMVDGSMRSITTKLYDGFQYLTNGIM

Structure (SMILES)	IC50
Cc1ccc(S(=O)(=O)NCCC(C)(C)O)cc1-c1cncc(-c2cn(C)nc2C)n1 [Example 3, 3-[6-(1,3-Dimethyl-1H-pyrazol-4-yl)-pyrazin-2-yl]-N-(3-hydroxy-3-methyl-butyl)-4-methyl-benzenesulfonamide]	> 9.55 µM
Cc1ncc(-c2cncc(-c3cc(S(=O)(=O)NCCCO)ccc3C)n2)s1 [Example 1, N-(3-Hydroxy-propyl)-4-methyl-3-[6-(2-methyl-thiazol-5-yl)-pyrazin-2-yl]-benzenesulfonamide]	> 9.1 µM
Cc1ccc(S(=O)(=O)NCC2(C)COC2)cc1-c1cncc(-c2cn(C)nc2C)n1 [Example 4, Trans 3-[6-(1,3-Dimethyl-1H-pyrazol-4-yl)-pyrazin-2-yl]-4-methyl-N-(3-methyl-oxetan-3-ylmethyl)-benzenesulfonamide]	> 10 µM
Cc1ccc(S(=O)(=O)NCC(C)(C)O)cc1-c1cncc(-c2cn(C)nc2C)n1 [Example 2, 3-[6-(1,3-Dimethyl-1H-pyrazol-4-yl)-pyrazin-2-yl]-N-(2-hydroxy-2-methyl-propyl)-4-methyl-benzenesulfonamide]	> 9.78 µM
Cc1ncc(-c2cncc(-c3cc(S(=O)(=O)N[C@H]4CC[C@H](O)CC4)ccc3C)n2)s1 [Example 5, Trans N-(4-Hydroxycyclohexyl)-4-methyl-3-(6-(2-methylthiazol-5-yl)pyrazin-2-yl)benzenesulfonamide]	> 9.1 µM

The next lines start with the values.

IC50	Structure (SMILES)
> 9.1 µM	Cc1ccc(S(=O)(=O)N[C@H]2CC[C@H](O)CC2)cc1-c1cncc(-c2cccnc2)n1 [Example 11, Trans N-(4-Hydroxy-cyclohexyl)-4-methyl-3-(6-pyridin-3-yl-pyrazin-2-yl)-benzenesulfonamide]
> 9.1 µM	Cc1ccc(S(=O)(=O)NCCC(C)(C)O)cc1-c1cncc(-c2cnn(CCN3CCOCC3)c2)n1 [Example 9, N-(3-Hydroxy-3-methyl-butyl)-4-methyl-3-{6-[1-(2-morpholin-4-yl-ethyl)-1H-pyrazol-4-yl]-pyrazin-2-yl}-benzenesulfonamide]
> 10 µM	Cc1ccc(S(=O)(=O)NCCC(C)(C)O)cc1-c1cncc(-c2cn(CCN3CCOCC3)nc2C)n1 [Example 10, N-(3-Hydroxy-3-methyl-butyl)-4-methyl-3-{6-[3-methyl-1-(2-morpholin-4-yl-ethyl)-1H-pyrazol-4-yl]-pyrazin-2-yl}-benzenesulfonamide]
> 9.55 µM	Cc1ccc(S(=O)(=O)NCC(C)(C)CO)cc1-c1cncc(-c2cn(C)nc2C)n1 [Example 8, 3-[6-(1,3-Dimethyl-1H-pyrazol-4-yl)-pyrazin-2-yl]-N-(3-hydroxy-2,2-dimethyl-propyl)-4-methyl-benzenesulfonamide]

Reference: patent publication US9862711B2, “Pyrazine derivatives as phosphatidylinositol 3-kinase inhibitors” (NOVARTIS AG, priority 2014, dated 2018)
